The numbers were not newly measured in article PMC3290704 (Journal of the American Chemical Society, 2012), which cites them from elsewhere.

The subject of one data set is TAZ2 from p300. The conditions noted are these: NMR structure of complex.
The target of a further data set is TAZ2. To be noted: fluorescence titrations.

Consider “p53(2–39): p53(2–39) peptide in NMR structure with TAZ2 from p300”, for which, in the data set on TAZ2 from p300, the “TAZ2 residues in direct hydrophobic contact with p53” value was “Val1802, Leu1823, and Leu1826 of TAZ2 have direct hydrophobic contacts with p53”; the “p53 residues forming an α-helix upon binding” value is “residues 17 ~ 24 of the p53 AD1 subdomain form an α-helix upon binding”.

A word on the Kd: it is the concentration at which binding is half-saturated. As for “p53(13–61): p53(13–61), literature TAZ2 binder by fluorescence titration”, at TAZ2, the dissociation constant Kd is 10 to 20 nM.
